Molecules are shown by their SMILES. Where two headings read alike, the source gives them in different places.

The assay deals with T1, full-length SARM1 (FL-SARM1) (Homo sapiens, UniProt Q6SZW1).
T1 sequence (Q6SZW1 28-724): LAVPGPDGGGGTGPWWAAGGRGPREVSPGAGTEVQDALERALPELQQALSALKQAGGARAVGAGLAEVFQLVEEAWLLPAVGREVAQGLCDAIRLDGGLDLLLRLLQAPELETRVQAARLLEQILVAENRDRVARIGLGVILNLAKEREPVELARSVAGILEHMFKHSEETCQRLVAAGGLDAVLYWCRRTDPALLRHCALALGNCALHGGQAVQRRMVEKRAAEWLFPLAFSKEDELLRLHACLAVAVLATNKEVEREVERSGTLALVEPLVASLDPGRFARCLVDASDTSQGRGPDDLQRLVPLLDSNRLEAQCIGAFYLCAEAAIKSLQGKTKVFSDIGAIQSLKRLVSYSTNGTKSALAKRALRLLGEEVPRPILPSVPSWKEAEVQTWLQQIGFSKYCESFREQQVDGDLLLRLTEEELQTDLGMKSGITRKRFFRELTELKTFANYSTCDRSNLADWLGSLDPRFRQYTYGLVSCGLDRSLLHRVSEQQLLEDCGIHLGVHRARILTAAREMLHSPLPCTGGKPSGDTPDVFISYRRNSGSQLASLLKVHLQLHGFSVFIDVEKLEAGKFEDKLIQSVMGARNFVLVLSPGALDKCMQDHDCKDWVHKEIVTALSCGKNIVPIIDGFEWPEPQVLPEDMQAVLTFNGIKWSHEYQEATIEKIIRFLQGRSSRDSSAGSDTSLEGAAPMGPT
Put plainly: FL-SARM1 cellular lysate assay (NAD/NADH-Glo detection of remaining NAD+, NMN-activated).

Setting [1] is: Activity (IC50 class), 11 point curve.
Setting [2] is: Activity (μM) (IC50), 11 point curve.
The mark [3] stands for this setting: read-out: Activity (IC50 class), 11 point curve.

Usually IC50 stands for the midpoint of a concentration-inhibition curve. Turning to `Cc1ccc(NC(=O)[C@@H]2CC2(F)F)cc1-c1cc(C#N)ccn1` [Example 157, (1S)-N-[3-(4-cyanopyridin-2-yl)-4-methylphenyl]-2,2-difluorocyclopropane-1-carboxamide], the 50% inhibitory concentration (IC50) by setting is: under setting [1], above 10 µM; under setting [2], 38 µM.

For `Cc1ccc(NC(=O)[C@@H]2CC2(F)F)cc1-c1ccc(C2CC2)cn1` [Example 149, (1S)-N-[3-(5-cyclopropylpyridin-2-yl)-4-methylphenyl]-2,2-difluorocyclopropane-1-carboxamide], the IC50 under setting [1] is above 10 µM and half-maximal inhibition under setting [2] (IC50) required 17 µM.

In the case of `CC[C@H]1C[C@@H]1C(=O)Nc1ccc(C)c(-c2ccccn2)c1` (single isomer, unassigned) [Example 107, trans-2-ethyl-N-(4-methyl-3-pyridin-2-ylphenyl)cyclopropane-1-carboxamide], the IC50 was above 10 µM under setting [1] and 18 µM under setting [2].

As for `Cc1c(F)cc(NC(=O)N2C3CCCC2C3)cc1-c1ccccn1` [Example 69, N-(3-fluoro-4-methyl-5-(pyridin-2-yl)phenyl)-6-azabicyclo[3.1.1]heptane-6-carboxamide], it took 0.08 µM to reach half-maximal inhibition under setting [2] (IC50) and the IC50 under setting [3] lay within 0.0001 to 1 µM.

As for `Cc1cc(F)c(NC(=O)N2C3CCCC2C3)cc1-c1ccccn1` [Example 43, N-(2-fluoro-4-methyl-5-(pyridin-2-yl)phenyl)-6-azabicyclo[3.1.1]heptane-6-carboxamide], the half-inhibitory concentration (IC50) by setting is: under setting [2], 0.2 µM; under setting [3], 0.0001 to 1 µM.

On to `O=C(Nc1ccc(C(F)(F)F)c(-c2ccccn2)c1)N1C2CCCC1C2` [Example 18, N-(3-(pyridin-2-yl)-4-(trifluoromethyl)phenyl)-6-azabicyclo[3.1.1]heptane-6-carboxamide], for which the 50% inhibitory concentration (IC50) was 0.3 µM under setting [2] and 0.0001 to 1 µM under setting [3].

Consider `COC(C)[C@@]12CC(C[C@@H](C)C1)N2C(=O)Nc1ccc(C)c(-c2ncc(F)cn2)c1` (stereo partly drawn) [Example 190, cis-N-(3-(5-fluoropyrimidin-2-yl)-4-methylphenyl)-1-(1-methoxyethyl)-3-methyl-6-azabicyclo[3.1.1]heptane-6-carboxamide], for which the 50% inhibitory concentration (IC50) runs as follows: under setting [2], 0.2 µM; under setting [3], 0.0001 to 1 µM.

`Cc1cc(F)c(NC(=O)N2[C@@H]3C[C@@H](C)C[C@H]2C3)cc1-c1nccnn1` [Example 240, cis-N-[2-fluoro-4-methyl-5-(1,2,4-triazin-3-yl)phenyl]-3-methyl-6-azabicyclo[3.1.1]heptane-6-carboxamide]: the IC50 is 0.09 µM under setting [2] and 0.0001 to 1 µM under setting [3].

`Cc1ccc(NC(=O)N2CCCC2c2ncccn2)cc1-c1ccccn1` (racemic) [Example 91, N-(4-methyl-3-pyridin-2-ylphenyl)-2-pyrimidin-2-ylpyrrolidine-1-carboxamide]: the concentration for half-maximal inhibition (IC50) runs as follows: under setting [1], above 10 µM; under setting [2], 16 µM.

Consider `Cc1ccc(NC(=O)[C@H]2CC[C@@H](C)N2c2ccccn2)cc1-c1ncc(F)cn1` [Example 282, (2R,5R)-N-[3-(5-fluoropyrimidin-2-yl)-4-methylphenyl]-5-methyl-1-pyridin-2-ylpyrrolidine-2-carboxamide], for which the IC50 under setting [1] was in the range of 1 to 10 µM and the IC50 under setting [2] is 1.2 µM.

On to `Cc1ccc(NC(=O)[C@H]2C[C@@H](c3ccccc3)CN2c2ncccn2)cc1-c1ncc(F)cn1` [Example 319], for which the 50% inhibitory concentration (IC50) reads like this: under setting [1], 1 to 10 µM; under setting [2], 6.7 µM.

On to `Cc1ccc(NC(=O)C(Cc2ncccn2)C2CCC2)cc1-c1ncc(F)cn1` (racemic) [Example 302, 2-cyclobutyl-N-(3-(5-fluoropyrimidin-2-yl)-4-methylphenyl)-3-(pyrimidin-2-yl)propanamide], for which the IC50 is 1 to 10 µM under setting [1] and 3 µM under setting [2].

Consider `Cc1ccc(NC(=O)N2C3CCCC2C3)cc1-c1cc(C(F)(F)F)cnn1` [Example 66, N-(4-methyl-3-(5-(trifluoromethyl)pyridazine-3-yl)phenyl)-6-azabicyclo[3.1.1]heptane-6-carboxamide], for which half-maximal inhibition under setting [2] (IC50) required 0.5 µM and the IC50 under setting [3] fell in the range of 0.0001 to 1 µM.

Consider `Cc1ccc(NC(=O)[C@H]2C[C@H]3C[C@H]3N2c2ncccn2)cc1-c1ncc(F)cn1` [Example 267, (1R,3R,5R)-N-[3-(5-fluoropyrimidin-2-yl)-4-methylphenyl]-2-pyrimidin-2-yl-2-azabicyclo[3.1.0]hexane-3-carboxamide], for which the IC50 is 1 to 10 µM under setting [1] and 3.1 µM under setting [2].

As for `CC1CCCCCN1C(=O)Nc1ccc(C(F)(F)F)c(-c2ncc(F)cn2)c1` (racemic) [Example 312, N-(3-(5-fluoropyrimidin-2-yl)-4-(trifluoromethyl)phenyl)-2-methylazepane-1-carboxamide], the IC50 is 1 to 10 µM under setting [1] and 1.4 µM under setting [2].

Consider `Cc1ccc(NC(=O)C2[C@@H]3CC[C@@]2(c2ccnn2C)C3)cc1-c1ncc(F)cn1` (single isomer, unassigned) [Example 204, N-[3-(5-fluoropyrimidin-2-yl)-4-methylphenyl]-1-(2-methylpyrazol-3-yl)bicyclo[2.1.1]hexane-5-carboxamide], for which the IC50 reads like this: under setting [2], 0.5 µM; under setting [3], 0.0001 to 1 µM.

With `Cc1ccc(NC(=O)C2C3CCC2CC3)cc1-c1cccnn1` (stereo not shown) [Example 103, N-(4-methyl-3-pyridazin-3-ylphenyl)bicyclo[2.2.1]heptane-7-carboxamide], the IC50 by setting is: under setting [2], 0.5 µM; under setting [3], 0.0001 to 1 µM.

Regarding `Cc1ccc(NC(=O)N2C3CCCCC2C3)cc1-c1ccccn1` [Example 23, N-(4-methyl-3-(pyridin-2-yl)phenyl)-7-azabicyclo[4.1.1]octane-7-carboxamide], half-maximal inhibition under setting [2] (IC50) required 0.04 µM and the half-inhibitory concentration (IC50) under setting [3] was 0.0001 to 1 µM.

Consider `Cc1ccc(NC(=O)N2C3C[C@@H](C)C[C@H]2C3)cc1-c1cncc(Cl)n1` [Example 217, cis-N-(3-(6-chloropyrazin-2-yl)-4-methylphenyl)-3-methyl-6-azabicyclo[3.1.1]heptane-6-carboxamide], for which the IC50 is 0.04 µM under setting [2] and 0.0001 to 1 µM under setting [3].

`Cc1ccc(NC(=O)[C@H]2C[C@H]3C[C@H]3N2c2cnccn2)cc1-c1ncc(F)cn1` [Example 264, (1R,3R,5R)-N-[3-(5-fluoropyrimidin-2-yl)-4-methylphenyl]-2-pyrazin-2-yl-2-azabicyclo[3.1.0]hexane-3-carboxamide]: the IC50 is, setting by setting: under setting [1], 1 to 10 µM; under setting [2], 1.1 µM.

On to `COCCOCc1ccnc(-c2cc(NC(=O)N3[C@@H]4C[C@@H](C)C[C@H]3C4)ccc2C)n1` [Example 243, cis-N-[3-[4-(2-methoxyethoxymethyl)pyrimidin-2-yl]-4-methylphenyl]-3-methyl-6-azabicyclo[3.1.1]heptane-6-carboxamide], for which the IC50 by setting is: under setting [1], 1 to 10 µM; under setting [2], 1.1 µM.

As for `Cc1ccnc(-c2cc(NC(=O)[C@@H]3CC3(F)F)ccc2C)c1` [Example 161, (1S)-2,2-difluoro-N-[4-methyl-3-(4-methylpyridin-2-yl)phenyl]cyclopropane-1-carboxamide], the half-inhibitory concentration (IC50) is 1 to 10 µM under setting [1] and 3.5 µM under setting [2].

Regarding `Cc1ccc(NC(=O)N2CCCC3C2C3C(F)(F)F)cc1-c1ccccn1` (mixture of isomers) [Example 98, N-(4-methyl-3-pyridin-2-ylphenyl)-7-(trifluoromethyl)-2-azabicyclo[4.1.0]heptane-2-carboxamide], the IC50 reads like this: under setting [1], above 10 µM; under setting [2], 20 µM.
